The assay has as its target FKBP12 (Homo sapiens, UniProt P62942). Nature of the assay: Inhibition of peptidyl-prolyl isomerase (rotamase) activity, apparent Ki. It is filed as biochemical. Conditions: chymotrypsin-coupled assay, N-succinyl-Ala-Ala-Pro-Phe-p-nitroanilide, pH 7.8. From the text: The inhibition of the prolyl peptidyl cis-trans isomerase activity of FKBP may be measured as an indicator of this affinity.
Inhibition of the peptidyl-prolyl isomerase (rotamase) activity of the compounds used in the inventive methods and pharmaceutical compositions can be evaluated by known methods described in the literature (Harding et al., Nature, 1989, 341:758-760; Holt et al. J. Am. Chem. Soc., 115:9923-9938). These values are obtained as apparent Ki's and are presented for representative compounds in TABLE II.
The cis-trans isomerization of an alanine-proline bond in a model substrate, N-succinyl-Ala-Ala-Pro-Phe-p-nitroanilide, is monitored spectrophotometrically in a chymotrypsin-coupled assay, which releases paranitroanilide from the trans form of the substrate. The inhibition of this reaction caused by the addition of different concentrations of inhibitor is determined, and the data is analyzed as a change in first-order rate constant as a function of inhibitor concentration to yield the apparent Ki values. […]
The absorbance at 390 nm versus time is monitored for 90 seconds using a spectrophotometer and the rate constants are determined from the absorbance versus time data files.

Chain of FKBP12 (P62942 whole entry, species assumed): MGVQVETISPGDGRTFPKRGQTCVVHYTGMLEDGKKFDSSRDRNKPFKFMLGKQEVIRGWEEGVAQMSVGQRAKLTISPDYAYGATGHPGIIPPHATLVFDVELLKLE

“3-(3-Pyridyl)-1-propyl (2S)-1-(3,3-Dimethyl-1,2-dioxopentyl)-2-pyrrolidinecarboxylate, N-oxide [Compound 1]”: the Ki was 0.225 µM.

Values taken from patent publication US6429215B1, “N-oxide of heterocyclic ester, amide, thioester, or ketone hair growth compositions and uses” (GPI NIL Holdings, Inc., priority 1998, dated 2002).
